PMC9250890 (Cell Reports, 2022)
Entries after “also recorded” stand apart in the source; their conditions may differ. Structures can show the parent of a compound that is named as a salt. Where two headings read alike, the source gives them in different places.

Assays:
[1] = target: T1, human ANO6 (Homo sapiens, UniProt Q4KMQ2); experiment: YFP fluorescence quenching-based anion channel assay, FRT-ANO6 cells; format: cell-based
T1 sequence (Q4KMQ2 1-931 isoform Q4KMQ2-2): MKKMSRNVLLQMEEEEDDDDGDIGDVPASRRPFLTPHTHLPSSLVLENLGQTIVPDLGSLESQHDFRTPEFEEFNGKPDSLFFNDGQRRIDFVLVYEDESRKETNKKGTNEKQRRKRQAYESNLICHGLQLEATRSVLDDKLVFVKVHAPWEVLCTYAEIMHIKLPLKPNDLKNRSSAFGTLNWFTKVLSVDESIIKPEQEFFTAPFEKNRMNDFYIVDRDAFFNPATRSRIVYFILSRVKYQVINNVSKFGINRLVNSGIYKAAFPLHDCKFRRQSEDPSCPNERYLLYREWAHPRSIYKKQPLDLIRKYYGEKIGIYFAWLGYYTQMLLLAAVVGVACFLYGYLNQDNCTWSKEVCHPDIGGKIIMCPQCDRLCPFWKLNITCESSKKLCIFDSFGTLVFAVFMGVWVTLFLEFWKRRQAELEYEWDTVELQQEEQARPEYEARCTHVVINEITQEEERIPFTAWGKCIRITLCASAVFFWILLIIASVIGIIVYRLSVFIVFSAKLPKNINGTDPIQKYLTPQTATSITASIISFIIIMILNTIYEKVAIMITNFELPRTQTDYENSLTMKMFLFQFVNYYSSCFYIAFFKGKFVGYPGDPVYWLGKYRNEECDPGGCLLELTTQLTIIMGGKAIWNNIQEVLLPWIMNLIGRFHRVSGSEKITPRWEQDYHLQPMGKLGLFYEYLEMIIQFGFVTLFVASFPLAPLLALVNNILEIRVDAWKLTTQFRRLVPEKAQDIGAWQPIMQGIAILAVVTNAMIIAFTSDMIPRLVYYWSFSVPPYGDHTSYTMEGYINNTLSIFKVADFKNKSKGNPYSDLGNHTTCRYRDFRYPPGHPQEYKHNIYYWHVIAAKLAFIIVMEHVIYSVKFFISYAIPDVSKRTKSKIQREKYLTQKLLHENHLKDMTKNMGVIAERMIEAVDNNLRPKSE

[2] = target: T2, ANO6 phospholipid scramblase (Homo sapiens, UniProt Q4KMQ2); experiment: Ionomycin-induced PS externalization; format: cell-based
T2 sequence (Q4KMQ2 1-931 isoform Q4KMQ2-2): T1 sequence (Q4KMQ2 1-931 isoform Q4KMQ2-2)

[3] = system: HeLa-ACE2 cells; experiment: SARS2-PsV-induced multinucleated cell formation; format: cell-based; details: SARS2-PsV 30 min
[4] = target: T3, human ANO2 (Homo sapiens, UniProt Q9NQ90); experiment: YFP quenching anion channel assay, FRT-ANO2 cells; format: cell-based
T3 sequence (Q9NQ90 1-998): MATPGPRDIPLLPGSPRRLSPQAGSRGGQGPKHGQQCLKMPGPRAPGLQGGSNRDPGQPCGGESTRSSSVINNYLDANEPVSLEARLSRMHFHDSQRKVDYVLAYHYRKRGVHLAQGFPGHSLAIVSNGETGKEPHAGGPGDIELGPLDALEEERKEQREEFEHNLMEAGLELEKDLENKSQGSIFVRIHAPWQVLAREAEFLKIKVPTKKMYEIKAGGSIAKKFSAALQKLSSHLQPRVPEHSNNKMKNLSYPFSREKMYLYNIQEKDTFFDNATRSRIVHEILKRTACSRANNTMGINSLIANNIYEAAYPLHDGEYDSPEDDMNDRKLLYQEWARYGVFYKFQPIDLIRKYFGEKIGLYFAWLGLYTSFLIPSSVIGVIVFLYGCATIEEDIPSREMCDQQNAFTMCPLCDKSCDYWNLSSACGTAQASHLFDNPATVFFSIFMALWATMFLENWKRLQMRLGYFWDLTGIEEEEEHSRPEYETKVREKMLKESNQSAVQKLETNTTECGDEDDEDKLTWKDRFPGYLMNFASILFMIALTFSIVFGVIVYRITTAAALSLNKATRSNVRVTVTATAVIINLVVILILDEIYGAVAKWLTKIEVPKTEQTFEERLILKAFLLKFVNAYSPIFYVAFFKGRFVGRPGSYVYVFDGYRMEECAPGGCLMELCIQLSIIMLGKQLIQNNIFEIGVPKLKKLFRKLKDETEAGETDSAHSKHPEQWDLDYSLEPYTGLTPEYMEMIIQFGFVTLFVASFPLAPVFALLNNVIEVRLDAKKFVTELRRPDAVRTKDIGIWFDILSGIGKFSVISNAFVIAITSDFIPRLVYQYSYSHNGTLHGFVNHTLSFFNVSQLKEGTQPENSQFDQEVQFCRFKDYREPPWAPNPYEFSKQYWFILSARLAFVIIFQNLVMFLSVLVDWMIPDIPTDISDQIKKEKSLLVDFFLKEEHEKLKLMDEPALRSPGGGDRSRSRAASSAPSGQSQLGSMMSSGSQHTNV

[5] = system: SARS-CoV-2; experiment: Cellular viral RNAs by qPCR at 4 h post-infection in Vero cells; format: cell-based; details: 0.01 MOI
[6] = system: SARS-CoV-2; experiment: Viral replication of authentic SARS-CoV-2 in Vero cells; format: cell-based; details: for IC50: read-out: IC50, viral replication, Vero, supernatant
[7] = target: T4, ANO6 (TMEM16F) (Homo sapiens, UniProt Q4KMQ2); experiment: Whole-cell patch clamp of ANO6 currents in HEK 293T-ANO6 cells; format: cell-based
T4 sequence (Q4KMQ2 1-931 isoform Q4KMQ2-2): T1 sequence (Q4KMQ2 1-931 isoform Q4KMQ2-2)

[8] = system: HEK 293T-ACE2-TMPRSS2 cells; format: cell-based; details: 10 μM, ATP 100 μM
[9] = system: CHO-Spike / HEK 293T-ACE2-TMPRSS2 cells; format: cell-based; details: 10 μM
[10] = system: SARS-CoV-2; experiment: Viral replication of SARS-CoV-2 in primary human nasal epithelial; format: cell-based; details: 10 μM basolateral, 72 h, HNE
[11] = system: Calu-3 cells; experiment: Cell viability MTS assay, Calu-3 cells; format: cell-based, human; details: Calu-3 and Vero cells
[12] = system: hANO6; details: 10 μM
[13] = system: human ANO1; experiment: YFP quenching anion channel assay, FRT-ANO1 cells
[14] = system: recombinant eGFP adenovirus (Ad-eGFP); experiment: Adenovirus; format: cell-based; details: 10 μM; 1 MOI; 48 h; HEK 293T
[15] = system: HeLa-ACE2 cells; experiment: SARS2-PsV-induced PS externalization in HeLa-ACE2 cells; format: cell-based; details: for SARS2-PsV-induced PS externalization: 1 h; for PS externalization evoked by trypsin-pretreated SARS2-PsV: trypsin 10 μg/mL, 10 min, 37°C
[16] = system: SARS-CoV-2 Spike pseudotyped virus (SARS2-PsV); experiment: microbe, parasite or virus in culture; format: cell-based; details: for single-round infection of SARS2-PsV: BAPTA-AM 10 μM
[17] = system: human WT-CFTR; experiment: CFTR short-circuit current in FRT-CFTR cells; format: cell-based; details: up to a 30-μM concentration
[18] = system: cytosolic Ca2+ signals; experiment: Ionomycin-induced cytosolic Ca2+ signals; format: cell-based
[19] = system: HEK 293T-ACE2-TMPRSS2 cells; experiment: SARS2-PsV-induced cytosolic Ca2+ signals; format: cell-based; details: pretreatment: BAPTA-AM 3 μM, camostat 10 μM, A6-001 10 μM
[20] = system: SARS-CoV-2; experiment: Viral replication of authentic SARS-CoV-2 in Calu-3 cells; format: cell-based
[21] = system: Calu-3 cells; experiment: ATP-induced Ca2+ response in Calu-3 cells; format: cell-based, human; details: 10 μM, ATP 100 μM
[22] = system: HeLa-ACE2 cells; experiment: Authentic SARS-CoV-2-induced PS externalization in HeLa-ACE2 cells; format: cell-based; details: 10 μM; 1 h pretreatment; 10 MOI
[23] = system: SARS-CoV-2; details: HeLa-ACE2 cells; ref Shang et al., 2020; cited from earlier work
[24] = system: PS scrambling induced by ionomycin; experiment: Ionomycin-induced PS scrambling, camostat control; format: cell-based; details: camostat 100 μM, 1 h prior; ionomycin 10 μM, 10 min
[25] = system: endogenous Cl- currents in HEK 293 cells; details: ref Braga et al., 2021; cited from earlier work
[26] = system: cytosolic Ca2+ signals; details: ref Braga et al., 2021; cited from earlier work
[27] = 10 μM during infection and 4 h post-infection
[28] = 10 μM during the infection period alone

For O=C(NCc1ccc(F)cc1)c1cccc(Nc2ccc(-c3ccccc3)nn2)c1 [A6-001, N-(4-fluorobenzyl)-3-((6-phenylpyridazin-3-yl)amino)benzamide], the IC50 ([1]; half-maximal inhibitory concentration [IC50], ANO6 ion channel, FRT-ANO6 cells, 10 μM ionomycin) was 90 nM, the IC50 [2] was 910 nM and the “ionomycin-induced PS externalization” value ([2]; 10 μM, FRT-ANO6 cells) was “most effective”. The “scramblase IC50 relative to that for ANO6 ion channel activity” value ([2]; larger) was “approximately 10 fold”, the multinucleated cell formation [3] was “inhibits; also recorded: significantly reduced” and the “ANO6 selectivity against ANO2” value [4] was 90 fold. For the same compound, the “reduction in cellular viral RNAs” value [5, 27] was 98%, the “ΔΔCt, cellular viral RNA” value [5, 27] was 5.58 and the “cellular viral reduction, authentic virus” value [5, 28] was 86%. For the same compound, the “ΔΔCt, cellular viral RNA” value [5, 28] was 2.84, the “viral reduction, plaque assay” value ([6]; 10 μM, 48 h, Vero) was 1/500 and the “viral reduction, qPCR” value ([6]; 10 μM, 48 h, Vero) was 1/150. For the same compound, the ΔCt ([6]; 10 μM, 48 h, Vero) was −11.8, the IC50 ([6]; Severe acute respiratory syndrome coronavirus 2, Vero, 48 h) was 930 nM and the virus-induced cytolysis ([6]; Vero, 48 h, light microscopy) was “dose dependently reduced”. The IC50 [6] was 740 nM, the IC50 [7] was 70 nM and the “purinergic agonist (ATP)-induced Ca2+ response” value [8] was “did not alter”. The membrane-fusion events ([9]; 8-h time-lapse) was “abolishes; also recorded: profoundly reduced”, the “initial lipid-mixing event and cell-cell fusion” value ([9]; Video S3) was “eliminated” and the cell-cell adhesion ([9]; initial 1 h) was “does not affect; also recorded: not affecting”. For the same compound, the “average reduction in viral replications, plaque assay” value [10] was 94%, the safety margin [11] was > 100 and the “ionomycin-induced increase in Lact-C2-positive, PI-negative cell population (Q3)” value ([12]; Jurkat-ANO6) was “reversed”. For the same compound, the “ionomycin-induced increase in Lact-C2-positive, PI-negative cell population (Q3)” value ([12]; Jurkat) was “reversed”, the “ANO6 selectivity against ANO1” value [13] was 460 fold and the “replications of the non-enveloped adenovirus” value [14] was “did not affect”. For the same compound, the “SARS2-PsV-induced PS externalization” value ([15]; 10 μM) was “strongly inhibited; also recorded: inhibit”, the “PS externalization evoked by trypsin-pretreated SARS2-PsV” value [15] was “inhibits” and the “cellular viral reduction, pseudotyped virus” value [16] was 78%. The “single-round infection of SARS2-PsV” value [16] was “dose dependently inhibited”, the IC50 ([16]; Severe acute respiratory syndrome coronavirus 2, read-out: IC50, single-round infection) was 420 nM and the CFTR currents [17] was “did not affect”. The “ionomycin-induced cytosolic Ca2+ signals” value ([18]; up to 30 μM) was “did not affect”, the “SARS2-PsV-induced cytosolic Ca2+ signals” value [19] was “did not affect” and the “viral reduction, qPCR” value ([20]; 10 μM, 48 h, […], Calu-3) was 1/50. For the same compound, the ΔCt ([20]; 10 μM, 48 h, […], Calu-3) was −13.5, the IC50 ([20]; Severe acute respiratory syndrome coronavirus 2, Calu-3, 48 h, read-out: IC50, viral replication) was 970 nM and the “purinergic agonist (ATP)-induced Ca2+ response” value [21] was “did not alter”.

For CCOC(=O)c1c(NCc2ccc(SC)cc2)c2cccc(C)c2[nH]c1=O [A6-004, ethyl 8-methyl-4-((4-(methylthio)benzyl)amino)-2-oxo-1,2-dihydroquinoline-3-carboxylate], the “IC50 on all examined ANOs” value ([1]; ANO1, ANO2 and ANO6) was “micromolar ranges”, the “SARS2-PsV-induced PS externalization” value ([15]; 10 μM) was “strongly inhibited; also recorded: inhibit” and the “ionomycin-induced cytosolic Ca2+ signals” value ([18]; at 30 μM) was “partially reduced”.

In the case of CC(=O)OCOC(=O)CN(CC(=O)OCOC(C)=O)c1ccccc1OCCOc1ccccc1N(CC(=O)OCOC(C)=O)CC(=O)OCOC(C)=O [BAPTA-AM, reference compound], the “authentic SARS-CoV-2 virus-evoked PS scrambling” value [22] is reported as “suppressed”, the “SARS2-PsV-induced PS externalization” value ([15]; 10 μM) is reported as “nullified; also recorded: inhibits” and the “single-round infection of SARS2-PsV” value [16] is reported as “significantly reduced”. The “SARS2-PsV-induced cytosolic Ca2+ signals” value [19] was “nullified”.

In the case of CN(C)C(=O)COC(=O)Cc1ccc(OC(=O)c2ccc(NC(=N)N)cc2)cc1 [camostat, camostat mesylate, reference compound], the SARS-CoV-2 cell entry [23] is listed as “inhibits”, the “PS scrambling induced by ionomycin” value [24] is listed as “did not affect” and the “SARS2-PsV-induced PS externalization” value ([15]; 100 μM) is listed as “reduced; also recorded: inhibits”. The “PS externalization evoked by trypsin-pretreated SARS2-PsV” value [15] was “but not by trypsinized SARS2-PsV” and the “SARS2-PsV-induced cytosolic Ca2+ signals” value [19] was “significantly reduced”.

In the case of CC(C)/N=c1\cc2n(-c3ccc(Cl)cc3)c3ccccc3nc-2cc1Nc1ccc(Cl)cc1 [clofazimine], the “endogenous Cl- currents / Cl- channel activities” value [25] is listed as “did not affect”.

For O=C(Nc1ccc([N+](=O)[O-])cc1Cl)c1cc(Cl)ccc1O [niclosamide], the “cytosolic Ca2+ signals” value [26] is given as “reduced” and the “endogenous Cl- currents / Cl- channel activities” value [25] is given as “partial inhibitory effect”.

In the case of CC[C@@H](C(=O)[C@@H](C)[C@@H](O)[C@H](C)[C@@H]1O[C@@H]([C@@H](CC)C(=O)O)CC[C@@H]1C)[C@H]1O[C@]2(C=C[C@@H](O)[C@]3(CC[C@@](C)([C@H]4CC[C@](O)(CC)[C@H](C)O4)O3)O2)[C@H](C)C[C@@H]1C [salinomycin], the “endogenous Cl- currents / Cl- channel activities” value [25] is listed as “did not affect”.
